Measurements reported in patent US7052850B2, “Isolated human EDG-4 receptor” (priority 1997, dated 2006).

Assays:
human EDG-4 = molecular target: T1, human EDG-4 (Homo sapiens, UniProt O95136, F273L/I205V); assay: Relative potency and efficacy of agonists, luciferase (SRE) reporter in 293-EBNA cells expressing recombinant human EDG-4; type: cell-based; details: for Rank (EMax): rank of efficacy
T1 construct: a 1059 bp open reading frame (excluding the stop codon) corresponding to the complete human edg-4 coding region; expressed in transfected cells; host or cells: 293-EBNA
Method: (§1) Transfection of EDG-4, expression, pretreatment and treatment of 293-EBNA cells expressing recombinant human EDG-4 was carried out essentially as described in “Example 11. […] Results were tabulated in Microsoft Excel, and analyzed with GraphPad Prism sotfware. […] The luciferase response was expressed as fold response, after subtracting any endogenous response in pcDNA3-transfected cells at a given concentration of compound.

293-EBNA cells = type: cell-based
Method: as §1

HeLa cells [1] = assay: IL-8 response (IL-8 ELISA) in HeLa cells; type: cell-based, human
Method: • Cells: HeLa (adenocarcinoma, human) • Media: DMEM/F12+10% FBS Adherent • 1) Cells were seeded at 0.2×10^6 cells/well in 6-well plates. • 2) Confluency of cells after 24–32 hrs was between 60–70%. B. Overnight Serum-Starvation • 1) Media was aspirated (no PBS wash). • 2) 1.5 ml 0.5% FBS media was added to each well. C. Treatments and Collection • 1) Made up all required solutions in 0.5% FBS media (control). Handling of […] for use in NF-κB experiments requires that sonication, commonly used to resuspend LPA, not be done; NF-κB may be activated by lipid peroxides created through vigorous frothing. Solutions:
D. Detection of Interleukin-8 (IL-8) using an IL-8 ELISA (Enzyme-Linked ImmunoSorbent Assay). • 1) The Quantikine Human IL-8 Immuno Assay Kit was obtained from R&D Systems (Cat. D8050). • 2) The kit and all samples were allowed to equlibrate to room temperature prior to use. • 3) All reagents were provided in the kit and prepared according to the instructions provided. • 4) The assay procedure was followed as recommended in the kit for cell culture supernatant samples. • 5) ELISA was performed on 50 μl samples of culture supernatant and duplicate samples were measured for each well. Each treatment was performed on triplicate wells. • 6) Plates were read on UV max kinetic microplate reader (Molecular Devices), set to 450 nm and correction set to 575 nm, using Wsoftmax sotware version 2.34.
• 1) Cells were seeded at 2.5×10^4 cells/well in 24-well plates. • 2) Confluency of cells after 24–32 hrs was between 60–70%. B. Overnight Serum-Starvation and PTX Pre-Treatment • 1) Media was aspirated (no PBS wash). • 2) 0.5 ml 0.5% FBS media was added to all wells not requiring PTX pre-treatment. • 3) For well requiring PTX; 0.5 ml 0.5% FBS media containing 50 ng/ml PTX (1 volume PTX (RBI Cat. P140): 1 volume DTT, incubate 37° C. for 30 minutes then dilute to 50 ng/ml) was added. C. Treatments and Collection • 1) Made up all required solutions in 0.5% FBS media (control). […] D. Refer to Procedure #1 For HeLa Cells (D).

HeLa cells [2] = assay: Cytotoxicity (viable cell count at 24 hr) in HeLa cells; details: NDGA 40 μM
Method: For this purpose, an experiment was conducted to measure cytotoxicity in parallel with IL-8 response.

[3] = tested on: Human Umbilical Vein Endothelial Cells (HUVEC); assay: IL-8 response in primary cultured HUVEC; type: cell-based; details: 5 μM, 6 hr
Method: Cells: HUVEC (Clonetics, Cat. CC-2519) were passaged according to supplier's instructions and used at passage 3. Cells were plated at 20,000 cells/well into 24-well plates. […] LPA induced a 3-fold IL-8 increase at this concentration. […] As shown below in FIG. 23, three cloned edge receptors respond to LPA as an agonist, and all three appear to transduce NF-κB activation in an agonist-dependent manner.

rat EDG-4 = rat EDG-4 (Rattus norvegicus, UniProt P47752); assay: NF-κB-tk-p4Luc luciferase reporter in 293-EBNA cells, rat EDG-4; type: cell-based; design: transient transfection with a eukaryotic expression vector expressing full-length rat edg-4 cDNA; expressed in transfected cells; host or cells: 293-EBNA; details: Assay 1; 24 hrs
From the text: First, the NF-κB response element was reconstructed in a new reporter construct (p4Luc) suitable for stable maintenance as an episome in primate cells. […] The p4-Luc reporter used the backbone of pREP4 (Invitrogen; Cat. V004-50), which contains the EBV orgin of replicaiton (EBVoni), as well as the EBNA-1 viral antigen required to maintain EBVoti containing plasmids as stable episoms in primate cells, and a prokayotic selection marker. A dominant eukaryotic selection marker for zeocin resistance was substituted for expression in pREP4. The promoter of pREP4 was then excised and replaced with a multi-cloning site for introduction of promoter/enhancer inserts. The NF-κB inser of the previous CAT reporter was subcloned into this site and all cloning junctions were sequenced to verify the structure of the plasmid, called NF-κB-tk-p4Luc.
• 1) 150 mm plates of 293-EBNA obtained from Invitrogen (Cat. R620-07) with a confluency of 18 80% were used for transfection. • 2) 6.6 μg NF-κB-tk-p4Luc reporter DNA and 6.6 μg of pC3-redg4 (expressing rat EDG-4), or pcDNA3 DNA was diluted in 500 μl OPTI-MEM (Gibco; Cat. 31985-062) • 3) 96.8 μl Lipofectamine (Gibco; Cat. 18324-020) was diluted in 500 μl of OPTI-MEM. • 4) The 2 solutions were mixed gently and the tube was incubated for 30 min at room temperature. • 5) The 293-EBNA plates were washed once with PBS and 13 ml OPTI-MEM was added to each plate, • 6) 6 ml OPTI-UMM was added to each transfection tube and this was added to a plate of 293EBNA cells. The plates were left for 4 hrs at 37° C. in a 5% CO2 incubator. • 7) After 4 his, the media was removed and replaced with frest 10% FBS media. Day 2: • 1) Transfected cells were washed, typsinized with 1× tryspin, resuspended in 10 ml media and counted. • 2) 0.02×10 ^6 cells were plated per well of a 96-well Blackview plate coated with polyD-lysine. No cells were plated in the outside wells of the 96-well plate. Two 96-well plates were seeded for each transfection. Day 3: • 1) Cells were washed with PBS and 140 μl serum-free media (SFM) added to each well. Plates were incubated in 37° C. incubator for 6 hrs. • 2) After 6 hrs, media was removed and cells treated with compounds diluted in 0.5% FBS media (140 μl added to each well).
Day 4 Luciferase Assay • 1) Luclite kit (Packard; Cat. 6016911) was used for luciferase assay. All reagents were brought to room temperature before use. • 2) Supernatant was transferred to a new 96-well plate and stored at −20 C. for rupture IL-8 measurement. • 3) 50 μl 0.5 M HEPES pH 7.8 buffer (1 mM MgCl21 mM CaCl2) was addeded to all wells of 96-well plate. Black adhesive backing (polyfitronics) was aligned to the bottom of the viewplate. • 4) Luclite substrate was made up by adding 10 ml substate diluent to 1 vial lyophilized substrate. Reconstituted substrate was kept under a dark container. 50 μl substrate was added to each well. • 5) A clear adhesive plate sealer was adjusted on to the viewplate and sealer rubbed over the plate with a Kimwipe. The plate was shaken on a plate shaker at 500 rpm for 5 seconds right side up and then upside down. A stop plate was placed on top of the blackview plate to keep it in the dark. • 6) Plates were incubated at room temperature for 30 min. • 7) After incubation, plates were counted in a 12 detector Packard Top Count on a program without dark delay.

HL-60 cells = assay: IL-8 response in HL-60 cells; type: cell-based, human; details: 1, 6 or 24 hours, S1P or LPA up to 3 μM, TNF-α 10 ng/ml
[4] = S1P 1 μM, NDGA 40 or 10 μM, NAC 30 mM, 30 minute pre-treatment

T1 sequence (O95136 whole entry I205V/F273L): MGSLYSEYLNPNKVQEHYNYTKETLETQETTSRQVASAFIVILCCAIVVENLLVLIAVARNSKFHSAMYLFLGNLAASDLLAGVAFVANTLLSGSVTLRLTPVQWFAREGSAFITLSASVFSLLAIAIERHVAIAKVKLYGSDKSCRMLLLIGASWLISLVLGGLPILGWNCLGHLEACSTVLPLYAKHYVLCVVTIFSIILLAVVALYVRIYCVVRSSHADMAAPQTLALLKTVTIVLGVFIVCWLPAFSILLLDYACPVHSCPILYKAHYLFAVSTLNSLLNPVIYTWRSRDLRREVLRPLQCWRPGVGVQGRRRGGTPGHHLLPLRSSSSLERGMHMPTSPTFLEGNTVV
rat EDG-4, sequence (P47752 whole entry): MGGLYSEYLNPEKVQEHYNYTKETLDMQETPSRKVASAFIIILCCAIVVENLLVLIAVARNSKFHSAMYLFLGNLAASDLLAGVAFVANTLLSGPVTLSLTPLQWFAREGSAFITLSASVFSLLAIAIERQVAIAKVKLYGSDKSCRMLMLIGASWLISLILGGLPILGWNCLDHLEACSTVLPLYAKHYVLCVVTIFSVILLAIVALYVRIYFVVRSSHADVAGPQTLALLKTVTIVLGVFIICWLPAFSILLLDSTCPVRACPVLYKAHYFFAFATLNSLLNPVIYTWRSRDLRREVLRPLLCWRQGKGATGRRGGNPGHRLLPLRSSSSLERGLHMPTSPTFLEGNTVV

CCCCCCCCCCCCCCC[C@@H](O)[C@@H](N)COP(=O)(O)O [Dihydro-S1P, dihydrosphingosine 1-phosphate]
agonist character at EDG-4 (human EDG-4): partial agonist | Rank (EMax) (human EDG-4): 3

CCCCCCCCCCCCC/C=C/[C@@H](O)C(N)CO[C@@H]1O[C@H](CO)[C@@H](O)[C@H](O)[C@@H]1O (stereo partly shown) [Glucospychosin, glucopsychosine]
concentration at which cytotoxicity was seen (293-EBNA cells): ^aCytotoxicity was seen at 10 μM or higher concentrations, preventing quantitative determination of EC50 or EMax | agonist character at EDG-4 (human EDG-4): poor potency and efficacy | Rank (EMax) (human EDG-4): 4

CC(=O)N[C@@H](CS)C(=O)O [NAC]
inhibition of IL-8 response to S1P (HeLa cells [1]; [4]): significantly inhibited

CC(Cc1ccc(O)c(O)c1)C(C)Cc1ccc(O)c(O)c1 (stereo not shown) [NDGA]
toxicity (HeLa cells [2]): some toxicity | inhibition of IL-8 response to S1P (HeLa cells [1]; S1P 1 μM, NDGA 40 μM): completely inhibited | inhibition of IL-8 response to S1P (HeLa cells [1]; [4]): significantly inhibited

CCCCCCCCCCCCC/C=C/[C@@H](O)[C@@H](N)CO[C@@H]1O[C@H](CO)[C@H](O)[C@H](O)[C@H]1O [Psychosine, psychosine]
concentration at which cytotoxicity was seen (293-EBNA cells): ^aCytotoxicity was seen at 10 μM or higher concentrations, preventing quantitative determination of EC50 or EMax | agonist character at EDG-4 (human EDG-4): poor potency and efficacy | Rank (EMax) (human EDG-4): 5 | IL-8 levels, increase over untreated controls [3]: Marginal increases

Cc1ccc(C(=O)Nc2ccc(S(=O)(=O)O)c3cc(S(=O)(=O)O)cc(S(=O)(=O)O)c23)cc1NC(=O)c1cccc(NC(=O)Nc2cccc(C(=O)Nc3cc(C(=O)Nc4ccc(S(=O)(=O)O)c5cc(S(=O)(=O)O)cc(S(=O)(=O)O)c45)ccc3C)c2)c1 [Suramin]
inhibition of IL-8 response to edelfosine (HeLa cells [1]; ET-18-OCH3 3 μM, PTX 50 ng/ml or suramin 1 mg/ml): potently inhibited | effect on IL-8 response to S1P (HeLa cells [1]; S1P 1 μM, suramin 1 mg/ml, 30 minute pre-treatment): extremely effective in blunting the IL-8 response to S1P

CCCCCCCCCCCCCC(=O)O[C@@H]1[C@@H](C)[C@@]2(O)[C@@H](C=C(CO)C[C@]3(O)C(=O)C(C)=C[C@@H]23)[C@H]2C(C)(C)[C@]12OC(C)=O [TPA]
induction of NF-κB reporter (rat EDG-4): strongly induced

CCCCC/C=C\C/C=C\C/C=C\C/C=C\CCCC(=O)NCCO [anandamide]
IL-8 levels, increase over untreated controls [3]: no responses

CCCCCCCCCCCCC/C=C/[C@@H](O)[C@@H](N)CO [sphingosine]
IL-8 induction (HeLa cells [1]; 6 hours, concentration series): lack of response

TNF-α
IL-8 release (HL-60 cells): capable of responding at 6 or 24 hr
